Laboratory results reported in article PMC6315989, “Red-Shifted FRET Biosensors for High-Throughput Fluorescence Lifetime Screening” (Biosensors, 2018).
Where “and” joins values, the source holds several entries; their conditions need not be identical. Identical values can stand only once.

Tests used:
[1] = biological target: T1, human cardiac calcium pump (SERCA2a) (Homo sapiens, UniProt P16615); experiment: 2CS (O/M, OFP/MFP) red-shifted FRET fluorescence lifetime biosensor in living HEK293 cells; assay type: cell-based
T1 sequence (P16615 1-997 isoform P16615-2): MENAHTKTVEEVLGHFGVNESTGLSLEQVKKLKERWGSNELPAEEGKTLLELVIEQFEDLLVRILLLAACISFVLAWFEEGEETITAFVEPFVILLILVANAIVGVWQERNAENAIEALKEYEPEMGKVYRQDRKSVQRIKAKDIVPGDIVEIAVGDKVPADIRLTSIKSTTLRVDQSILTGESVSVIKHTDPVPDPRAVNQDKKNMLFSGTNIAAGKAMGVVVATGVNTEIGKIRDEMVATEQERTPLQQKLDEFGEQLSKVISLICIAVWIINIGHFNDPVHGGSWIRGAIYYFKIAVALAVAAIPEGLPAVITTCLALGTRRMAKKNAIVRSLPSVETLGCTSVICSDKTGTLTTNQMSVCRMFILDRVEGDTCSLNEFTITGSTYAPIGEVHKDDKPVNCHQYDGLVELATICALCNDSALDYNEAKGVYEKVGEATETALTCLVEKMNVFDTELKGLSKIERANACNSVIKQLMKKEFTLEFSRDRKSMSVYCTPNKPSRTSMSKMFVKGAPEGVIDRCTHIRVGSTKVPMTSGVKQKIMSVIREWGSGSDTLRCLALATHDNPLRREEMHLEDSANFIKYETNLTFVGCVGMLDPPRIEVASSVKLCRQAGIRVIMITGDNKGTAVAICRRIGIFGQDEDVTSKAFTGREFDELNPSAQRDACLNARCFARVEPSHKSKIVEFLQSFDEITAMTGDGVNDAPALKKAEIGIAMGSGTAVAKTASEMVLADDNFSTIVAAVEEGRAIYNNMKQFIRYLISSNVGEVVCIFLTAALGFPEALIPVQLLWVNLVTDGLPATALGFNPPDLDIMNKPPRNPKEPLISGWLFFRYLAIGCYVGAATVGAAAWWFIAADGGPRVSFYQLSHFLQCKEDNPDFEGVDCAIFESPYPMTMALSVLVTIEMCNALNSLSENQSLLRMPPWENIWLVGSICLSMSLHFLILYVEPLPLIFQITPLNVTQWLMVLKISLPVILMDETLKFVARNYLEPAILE
Experimental: (§1) HEK293 (originally derived from human embryonic kidney) cells were maintained in phenol red-free DMEM from Gibco (Waltham, MA, USA) supplemented with 2 mM GlutaMAX (Gibco), 10% fetal bovine serum (FBS), from Atlanta Biologicals (Lawrenceville, GA, USA), and 1 IU/mL penicillin/streptomycin (Gibco) and grown at 37 °C with 5% CO2. HEK293 cell lines were used to generate stable clones overexpressing the FRET-based biosensors (containing both donor and acceptor) and corresponding donor-only and acceptor-only control cell lines. Three days prior to screening, the stable cell lines were expanded into T225 flasks from Corning Inc. (Corning, NY, USA). On each day of screening and FRET hit retesting, approximately 30 million cells were harvested by treatment of Tryple from Invitrogen (Carlsbad, CA, USA), washed three times in phosphate buffer solution (PBS) with no magnesium or calcium from Thermo Scientific (Waltham, MA, USA) by centrifugation at 300 g, filtered using 70 µm cell strainers (Corning), and diluted to 10^6 cells/mL using an automated countess cell counter (Invitrogen). On each day of screening, cell viability was assessed using the trypan blue assay and found to be above 95% viable. After resuspension and dilution in PBS, the cells were continuously and gently stirred using a magnetic stir bar at room temperature, keeping the cells in suspension and evenly distributed to avoid clumping. Subcellular localization of each biosensor was evaluated using an Olympus FluoView FV1000 IX2 (Tokyo, Japan) Inverted Confocal microscope with FLIM detector. GFP and RFP signals were assessed using 473 and 561 nm laser excitation, respectively. Cell nuclei were identified by staining with DAPI, using 405 nm laser excitation.
(§2) Cells and compound mixtures were dispensed into 1536-well flat, black-bottom polypropylene plates from Greiner (Kremsmünste, Austria). Compounds were dispensed using either an automated Echo acoustic liquid dispenser from Labcyte (Sunnyvale, CA, USA) or a Mosquito liquid dispenser from TTP Labtech (Melbourn, UK). Cells were dispensed at room temperature using a Multidrop Combi liquid dispenser from Thermo (Pittsburg, PA, USA), at a density of 10^6 cells/mL, either 30 or 120 min before screening. For screening, cells were dispensed into assay plates containing the 1280-compund LOPAC (Library of Pharmacologically Active Compounds, from Invitrogen), dissolved in DMSO. The final DMSO concentration was <1%, and control wells were prepared containing cells and matching [DMSO]. The same methods were applied for subsequent FRET testing of the reproducible hits identified in the pilot screen. Reproducible FRET hits for retesting were purchased from Tocris (Minneapolis, MN, USA) or Invitrogen (Carlsbad, CA, USA), depending on their availability.
(§3) An in-depth description of the fluorescence instrumentation has previously been described in detail and can be found in our previous publication. The current instrument has been updated to a high-density microplate format (1536 wells, 5 μL/well), acquiring data from a full plate in less than three minutes with lifetime measurement precision (standard deviation/mean) of 1% or better. Fluorescence decay waveforms (with upper-end specifications of […] resolution, 640 data points over 128 ns range) for FLT determination were detected directly as previously described, except that two different light sources were used for GFP and OFP. In both cases, fluorescence was excited with a pulsed microchip laser producing nanosecond-wide pulses. As previously described for GFP, a 473 nm laser (Bright Solutions, Via degli Artigiani, Italy) was used, delivering pulses of ~1 μJ energy at a 5 kHz repetition rate. For OFP, a 532 nm laser (Teem Photonics SNG-20F-100, Meylan, France) was used, delivering pulses of ~0.3 μJ energy at a 20 kHz repetition rate. […]

SERCA1a = biological target: T2, SERCA1a (Oryctolagus cuniculus, UniProt P04191); experiment: Enzyme-coupled NADH-linked SERCA ATPase activity assay, skeletal SR vesicles; assay type: biochemical, rabbit
T2 construct: sarcoplasmic reticulum vesicles prepared from rabbit skeletal muscle (SERCA1a); from tissue; host or cells: rabbit skeletal muscle sarcoplasmic reticulum vesicles
T2 sequence (P04191 1-994 isoform P04191-2): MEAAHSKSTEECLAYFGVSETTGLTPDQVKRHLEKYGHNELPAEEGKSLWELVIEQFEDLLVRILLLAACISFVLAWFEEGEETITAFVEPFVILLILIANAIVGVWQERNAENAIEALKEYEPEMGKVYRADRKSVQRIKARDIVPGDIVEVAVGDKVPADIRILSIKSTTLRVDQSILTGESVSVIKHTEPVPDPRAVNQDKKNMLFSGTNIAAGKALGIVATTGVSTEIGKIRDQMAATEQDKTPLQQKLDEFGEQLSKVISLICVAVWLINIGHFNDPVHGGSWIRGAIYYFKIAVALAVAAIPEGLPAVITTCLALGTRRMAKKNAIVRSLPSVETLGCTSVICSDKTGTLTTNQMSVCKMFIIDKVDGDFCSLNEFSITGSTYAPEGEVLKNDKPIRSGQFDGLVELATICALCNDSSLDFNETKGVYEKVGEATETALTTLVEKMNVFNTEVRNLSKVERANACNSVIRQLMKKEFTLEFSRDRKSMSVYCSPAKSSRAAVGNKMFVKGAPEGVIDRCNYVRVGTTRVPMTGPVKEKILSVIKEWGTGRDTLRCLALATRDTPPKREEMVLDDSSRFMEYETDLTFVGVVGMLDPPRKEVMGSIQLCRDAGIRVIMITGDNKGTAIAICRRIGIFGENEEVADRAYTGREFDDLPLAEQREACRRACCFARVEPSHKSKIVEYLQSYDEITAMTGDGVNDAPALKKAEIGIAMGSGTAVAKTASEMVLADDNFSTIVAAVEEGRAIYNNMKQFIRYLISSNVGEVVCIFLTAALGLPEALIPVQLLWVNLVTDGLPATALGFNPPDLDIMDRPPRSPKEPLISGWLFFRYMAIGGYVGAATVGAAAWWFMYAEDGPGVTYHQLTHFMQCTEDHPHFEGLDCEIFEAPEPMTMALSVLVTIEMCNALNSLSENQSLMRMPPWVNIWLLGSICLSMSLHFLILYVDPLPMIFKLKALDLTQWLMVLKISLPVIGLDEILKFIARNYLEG
Experimental: (§4) Functional assays were performed using sarcoplasmic reticulum vesicles prepared from rabbit skeletal muscle (SERCA1a) and pig cardiac muscle (SERCA2a). An enzyme-coupled, NADH-linked ATPase assay was used to measure SERCA ATPase activity in 96-well microplates. Each well contained 50 mM MOPS (pH 7.0), 100 mM KCl, 5 mM MgCl2, 1 mM EGTA, 0.2 mM NADH, 1 mM phosphoenol pyruvate, 10 IU/mL of pyruvate kinase, 10 IU/mL of lactate dehydrogenase, 1 µM of the calcium ionophore A23187 from Sigma (St. Louis, MO, USA), and CaCl2 added to set free [Ca^2+] to 10 μM [23]; 4 μg/mL of SR vesicle, calcium, compound, and assay mix were incubated for 20 min. The assay was started upon the addition of ATP, at a final concentration of 5 mM (total volume to 200 μL), and the rate of decrease in NADH absorbance at 340 nm was determined using a SpectraMax Plus microplate spectrophotometer (Molecular Devices, Sunnyvale, CA, USA).

SERCA2a = biological target: T3, SERCA2a (Sus scrofa, UniProt P11607); experiment: Enzyme-coupled NADH-linked SERCA ATPase activity assay, cardiac SR vesicles; assay type: biochemical, pig
T3 construct: rabbit skeletal muscle (SERCA1a) and pig cardiac muscle (SERCA2a); from tissue; host or cells: pig cardiac muscle sarcoplasmic reticulum vesicles
T3 sequence (P11607 1-997 isoform P11607-2): as the sequence (P16615 1-997 isoform P16615-2) above, with R371K, N403K, S538P, L570M, H576N, D667E, A713S, S865T, I889V, V963L counted along it
Experimental: as §4

[2] = system: donor-only controls and donor-acceptor "null" linker constructs; experiment: Control biosensors (donor-only 1CS and donor-acceptor null linker) lifetime CRC in HEK293 cells; assay type: cell-based, human; conditions: G/R and O/M control cell lines
Experimental: HEK293 (originally derived from human embryonic kidney) cells were maintained in phenol red-free DMEM from Gibco (Waltham, MA, USA) supplemented with 2 mM GlutaMAX (Gibco), 10% fetal bovine serum (FBS), from Atlanta Biologicals (Lawrenceville, GA, USA), and 1 IU/mL penicillin/streptomycin (Gibco) and grown at 37 °C with 5% CO2. HEK293 cell lines were used to generate stable clones overexpressing the FRET-based biosensors (containing both donor and acceptor) and corresponding donor-only and acceptor-only control cell lines. Three days prior to screening, the stable cell lines were expanded into T225 flasks from Corning Inc. (Corning, NY, USA). […] On each day of screening, cell viability was assessed using the trypan blue assay and found to be above 95% viable. […] Subcellular localization of each biosensor was evaluated using an Olympus FluoView FV1000 IX2 (Tokyo, Japan) Inverted Confocal microscope with FLIM detector. GFP and RFP signals were assessed using 473 and 561 nm laser excitation, respectively. […]
An in-depth description of the fluorescence instrumentation has previously been described in detail and can be found in our previous publication. […] Fluorescence decay waveforms (with upper-end specifications of […] resolution, 640 data points over 128 ns range) for FLT determination were detected directly as previously described, except that two different light sources were used for GFP and OFP. In both cases, fluorescence was excited with a pulsed microchip laser producing nanosecond-wide pulses. […] These filters were selected to exclude acceptor fluorescence, as only the lifetime of the donor fluorescent protein is required to calculate FRET (Equation (1)). […] The observed time-resolved fluorescence waveform was analyzed as described previously, assuming a single-exponential decay, to determine the fluorescence lifetimes (FLT) for control samples containing donor only (τD) and FRET biosensor samples containing donor plus acceptor (τDA). FRET efficiency was calculated from (1) FRET=1−(τDA/τD) […]

[3] = biological target: T1, human cardiac calcium pump (SERCA2a); experiment: 2CS (G/R, GFP/RFP) FRET fluorescence lifetime biosensor in living HEK293 cells; assay type: cell-based; parameters: expressed in transfected cells
Experimental: as §1, §2, §3

[4] = LOPAC hits, 16-point CRC, Hill fit, apparent EC50 for FPL 64176 (no saturation), read-out: EC50 of lifetime change, 2CS (OFP/MFP)
[5] = LOPAC hits, 16-point CRC, Hill fit, apparent EC50 for FPL 64176 (no saturation), read-out: EC50 of lifetime change, 2CS (GFP/RFP)
[6] = known SERCA inhibitors, concentration-response curve, live HEK293 cells, 532 nm excitation, read-out: EC50 of lifetime change, h2CS2a (O/M)
[7] = mean ± SD, concentration-response curve
[8] = known SERCA inhibitors, concentration-response curve, live HEK293 cells, 473 nm excitation, read-out: EC50 of lifetime change, h2CS2a (G/R)

Structure (SMILES)	EC50 [1, 4]	effect on Ca-dependent ATPase activity, SERCA1a (SERCA1a; CRC, free Ca2+ 10 μM)	effect on Ca-dependent ATPase activity, SERCA2a (SERCA2a; CRC, free Ca2+ 10 μM)	EC50 [3, 5]	effect on FRET/lifetime of donor-only and null-linker controls [2]	EC50 [1, 6]	EC50 [3, 8]	further results
c1ccc(C(NCc2cccnc2)(c2ccccc2)c2ccccc2)cc1 [UCL 2077, 3-(triphenylmethylaminomethyl)pyridine]	7.2 µM	biphasic	biphasic	13.8 µM	no significant effect on FRET			compound concentration at which ATPase activity peaked, SERCA1a (SERCA1a; biphasic CRC): around 3 micromolar; compound concentration at which ATPase activity peaked, SERCA2a (SERCA2a; biphasic CRC): around 3 micromolar
Oc1ccc2ccccc2c1SSc1c(O)ccc2ccccc12 [IPA3]					significant concentration-dependent changes in fluorescence lifetime			concentration at which FRET abruptly and significantly decreased, 2CS (O/M) ([1]; non-sigmoidal CRC): approximately 10 μM; IC50 (SERCA1a; CRC, free Ca2+ 10 μM, read-out: apparent EC50 (IC50) of ATPase inhibition, SERCA1a): 9.5 µM; IC50 (SERCA2a; CRC, free Ca2+ 10 μM, read-out: apparent EC50 (IC50) of ATPase inhibition, SERCA2a): 8 µM; concentration at which FRET abruptly and significantly decreased, 2CS (G/R) ([3]; non-sigmoidal CRC): approximately 10 μM
COC(=O)c1c(C)[nH]c(C)c1C(=O)c1ccccc1Cc1ccccc1 [FPL 64176]	21.1 µM and 21 µM	biphasic ATPase activation	biphasic ATPase activation	26.5 µM and 26 µM	no significant effect on FRET			FRET (lifetime) response in CRC, 2CS (O/M) ([1]; 16-point CRC): did not saturate at the highest concentrations; ATPase activation of SERCA2a in comparison to SERCA1a (EC50 and % change) (SERCA2a; cardiac versus skeletal isoform): significantly more effective; FRET (lifetime) response in CRC, 2CS (G/R) ([3]; 16-point CRC): did not saturate at the highest concentrations
C/C=C(/C)C(=O)O[C@H]1C(C)=C2[C@H]([C@@H]1OC(=O)CCCCCCC)[C@@](C)(OC(C)=O)C[C@H](OC(=O)CCC)[C@@]1(O)[C@H]2OC(=O)[C@@]1(C)O [thapsigargin]						0.0022 ± 0.0013 µM	0.0044 ± 0.0012 µM	lifetime change Δτ at saturating compound, h2CS2a (O/M) [1, 7]: 258 ± 12 ps; lifetime change Δτ at saturating compound, h2CS2a (G/R) [3, 7]: 136 ± 10 ps
CC(=O)C1=C(O)[C@@H]2[C@H]3c4c[nH]c5cccc(c45)C[C@H]3C(C)(C)N2C1=O [CPA, cyclopiazonic acid]						0.626 µM	0.715 µM	
